Experimental data as given in US11046686B2, “Thiadiazole IRAK4 compounds” (Gilead Sciences, Inc., priority 2018, dated 2021).
pEC50, pIC50: −log10 of the molar value. Read-outs that look alike come from different tables or passages of the source.

Legend:
TNFα = test: IRAK4 Monocyte TNFα Cell Based Assay; parameters: species or system human; conditions: read-out: EC50 MONO TNF HTRF
How it was run: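 TNFα release quantified by HTRF (cryptate/XL665 antibody pair, overnight at RT) after 1 h compound pre-incubation (0.1% DMSO) and 4 h LPS challenge at 50 pg/ml, 37 °C, 5,000 monocytes per well. Signal ratio normalised between unstimulated (0%) and stimulated (100%) controls.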

IRAK4 enzyme = IRAK4 enzyme (Homo sapiens (Human), UniProt Q9NWZ3); test: IRAK4 Biochemical Assay (TR-FRET, STK1 KinEASE)
IRAK4 enzyme, sequence (Q9NWZ3 whole entry): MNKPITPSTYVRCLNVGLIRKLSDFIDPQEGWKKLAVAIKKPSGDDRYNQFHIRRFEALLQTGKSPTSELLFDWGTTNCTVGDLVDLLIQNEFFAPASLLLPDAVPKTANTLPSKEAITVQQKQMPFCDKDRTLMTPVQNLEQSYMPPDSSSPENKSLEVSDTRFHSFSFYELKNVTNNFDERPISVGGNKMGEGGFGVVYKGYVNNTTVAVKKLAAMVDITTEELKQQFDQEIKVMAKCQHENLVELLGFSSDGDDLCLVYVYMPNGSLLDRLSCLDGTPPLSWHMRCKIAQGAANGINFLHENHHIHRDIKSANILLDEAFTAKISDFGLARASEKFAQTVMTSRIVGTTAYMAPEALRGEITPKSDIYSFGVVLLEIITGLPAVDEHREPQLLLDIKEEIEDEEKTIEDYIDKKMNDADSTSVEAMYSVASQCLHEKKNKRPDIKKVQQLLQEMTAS
How it was run: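 TR-FRET endpoint (KinEASE STK1): phosphopeptide detected with cryptate antibody and tracer after EDTA quench, ratio 665/615 nm, normalized to no-inhibitor wells as % inhibition. Reaction: 0.75 nM IRAK4, […] peptide, 500 μM ATP, pH 7.0 HEPES, 120 min room temperature, after 15 min compound preincubation with enzyme.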

[1] = Homo sapiens, Monocyte, human monocytes, second part of Table 2, compounds 33-343, unit inferred

CC(=O)NC12CCC(c3nnc(-c4cnc(-c5ccc6cc(C#N)cnn56)cc4NC(C)C)s3)(C1)C2 [Example 288, N-(4-(5-(6-(3-cyanopyrrolo[1,2-b]pyridazin-7-yl)-4-(isopropylamino)pyridin-3-yl)-1,3,4-thiadiazol-2-yl)bicyclo[2.1.1]hexan-1-yl)acetamide]
pEC50 (TNFα; [1]): 7.70 | pIC50 (IRAK4 enzyme): 9.14

CC(C)Nc1cc(-c2ccc3cc(C#N)cnn23)ncc1-c1nnc(N2CC3CCC(C3)C2)s1 [Example 291, 7-(5-(5-(3-azabicyclo[3.2.1]octan-3-yl)-1,3,4-thiadiazol-2-yl)-4-(isopropylamino)pyridin-2-yl)pyrrolo[1,2-b]pyridazine-3-carbonitrile]
pEC50 (TNFα; [1]): 7.23 | pIC50 (IRAK4 enzyme): 8.75

CC(C)Nc1cc(-c2ccc3cc(C#N)cnn23)ncc1-c1nnc(N2CC3(CCO3)C2)s1 [Example 293, 7-(5-(5-(1-oxa-6-azaspiro[3.3]heptan-6-yl)-1,3,4-thiadiazol-2-yl)-4-(isopropylamino)pyridin-2-yl)pyrrolo[1,2-b]pyridazine-3-carbonitrile]
pEC50 (TNFα; [1]): 6.44 | pIC50 (IRAK4 enzyme): 8.82

CC(C)Nc1cc(-c2ccc3cc(C#N)cnn23)ncc1-c1nnc(N2CC3CCCC(C3)C2)s1 [Example 295, 7-(5-(5-(3-azabicyclo[3.3.1]nonan-3-yl)-1,3,4-thiadiazol-2-yl)-4-(isopropylamino)pyridin-2-yl)pyrrolo[1,2-b]pyridazine-3-carbonitrile]
pEC50 (TNFα; [1]): 6.00 | pIC50 (IRAK4 enzyme): 7.24

CC(=O)N[C@@H]1CCCN(c2nnc(-c3cnc(-c4ccc5cc(C#N)cnn45)cc3NC(C)C)s2)C1 [Example 296, (R)-N-(1-(5-(6-(3-cyanopyrrolo[1,2-b]pyridazin-7-yl)-4-(isopropylamino)pyridin-3-yl)-1,3,4-thiadiazol-2-yl)piperidin-3-yl)acetamide]
pEC50 (TNFα; [1]): 6.00 | pIC50 (IRAK4 enzyme): 8.99

CC(C)Nc1cc(-c2ccc3cc(C#N)cnn23)ncc1-c1nnc(N2CC(O)(C(F)(F)F)C2)s1 [Example 297, 7-(5-(5-(3-hydroxy-3-(trifluoromethyl)azetidin-1-yl)-1,3,4-thiadiazol-2-yl)-4-(isopropylamino)pyridin-2-yl)pyrrolo[1,2-b]pyridazine-3-carbonitrile]
pEC50 (TNFα; [1]): 8.00 | pIC50 (IRAK4 enzyme): 9.17

CC(=O)NC1CCCN(c2nnc(-c3cnc(-c4ccc5cc(C#N)cnn45)cc3NC(C)C)s2)CC1 (stereo not drawn) [Example 298, N-(1-(5-(6-(3-cyanopyrrolo[1,2-b]pyridazin-7-yl)-4-(isopropylamino)pyridin-3-yl)-1,3,4-thiadiazol-2-yl)azepan-4-yl)acetamide]
pEC50 (TNFα; [1]): 7.44 | pIC50 (IRAK4 enzyme): 9.21

CC(=O)N[C@H]1CCCN(c2nnc(-c3cnc(-c4ccc5cc(C#N)cnn45)cc3NC(C)C)s2)C1 [Example 299, (S)-N-(1-(5-(6-(3-cyanopyrrolo[1,2-b]pyridazin-7-yl)-4-(isopropylamino)pyridin-3-yl)-1,3,4-thiadiazol-2-yl)piperidin-3-yl)acetamide]
pEC50 (TNFα; [1]): 7.38 | pIC50 (IRAK4 enzyme): 9.28

CC(=O)N1C[C@H]2C[C@@H]1CN2c1nnc(-c2cnc(-c3ccc4cc(C#N)cnn34)cc2NC(C)C)s1 [Example 303, 7-(5-(5-((1R,4R)-5-acetyl-2,5-diazabicyclo[2.2.1]heptan-2-yl)-1,3,4-thiadiazol-2-yl)-4-(isopropylamino)pyridin-2-yl)pyrrolo[1,2-b]pyridazine-3-carbonitrile]
pEC50 (TNFα; [1]): 7.90 | pIC50 (IRAK4 enzyme): 9.29

CNC(=O)C1CCN(c2nnc(-c3cnc(-c4ccc5cc(C#N)cnn45)cc3NC(C)C)s2)CC1 [Example 305, 1-(5-(6-(3-cyanopyrrolo[1,2-b]pyridazin-7-yl)-4-(isopropylamino)pyridin-3-yl)-1,3,4-thiadiazol-2-yl)-N-methylpiperidine-4-carboxamide]
pEC50 (TNFα; [1]): 7.80 | pIC50 (IRAK4 enzyme): 8.99

CNc1cc(-c2ccc3cc(C#N)cnn23)ncc1-c1nnc(N2CC[C@@H](NC(C)=O)C(F)(F)C2)s1 [Example 306, (R)-N-(1-(5-(6-(3-cyanopyrrolo[1,2-b]pyridazin-7-yl)-4-(methylamino)pyridin-3-yl)-1,3,4-thiadiazol-2-yl)-3,3-difluoropiperidin-4-yl)acetamide]
pEC50 (TNFα; [1]): 7.74 | pIC50 (IRAK4 enzyme): 8.92

CNc1cc(-c2ccc3cc(C#N)cnn23)ncc1-c1nnc(N2CC[C@H](NC(C)=O)C(F)(F)C2)s1 [Example 307, (S)-N-(1-(5-(6-(3-cyanopyrrolo[1,2-b]pyridazin-7-yl)-4-(methylamino)pyridin-3-yl)-1,3,4-thiadiazol-2-yl)-3,3-difluoropiperidin-4-yl)acetamide]
pEC50 (TNFα; [1]): 7.27 | pIC50 (IRAK4 enzyme): 9.08

CC(C)Nc1cc(-c2ccc3cc(C#N)cnn23)ncc1-c1nnc(N2CCC(C#N)CC2)s1 [Example 310, 7-(5-(5-(4-cyanopiperidin-1-yl)-1,3,4-thiadiazol-2-yl)-4-(isopropylamino)pyridin-2-yl)pyrrolo[1,2-b]pyridazine-3-carbonitrile]
pEC50 (TNFα; [1]): 7.59 | pIC50 (IRAK4 enzyme): 9.18

CC(=O)NC1CC=C(c2nnc(-c3cnc(-c4ccc5cc(C#N)cnn45)cc3NC(C)C)s2)CC1 (stereo not drawn) [Example 313, N-(4-(5-(6-(3-cyanopyrrolo[1,2-b]pyridazin-7-yl)-4-(isopropylamino)pyridin-3-yl)-1,3,4-thiadiazol-2-yl)cyclohex-3-en-1-yl)acetamide]
pEC50 (TNFα; [1]): 7.31 | pIC50 (IRAK4 enzyme): 8.83

CC(C)Nc1cc(-c2ccc3cc(C#N)cnn23)ncc1-c1nnc([C@H]2CC[C@H](NC(=O)C3(C)COC3)CC2)s1 [Example 314, N-((1r,4r)-4-(5-(6-(3-cyanopyrrolo[1,2-b]pyridazin-7-yl)-4-(isopropylamino)pyridin-3-yl)-1,3,4-thiadiazol-2-yl)cyclohexyl)-3-methyloxetane-3-carboxamide]
pEC50 (TNFα; [1]): 8.00 | pIC50 (IRAK4 enzyme): 9.26

CC(=O)N[C@H]1CC[C@H](c2nnc(-c3cnc(-c4ccc5cc(C#N)cnn45)cc3N[C@H](C)C#N)s2)CC1 [Example 316, N-((1R,4r)-4-(5-(4-(((R)-1-cyanoethyl)amino)-6-(3-cyanopyrrolo[1,2-b]pyridazin-7-yl)pyridin-3-yl)-1,3,4-thiadiazol-2-yl)cyclohexyl)acetamide]
pEC50 (TNFα; [1]): 8.28 | pIC50 (IRAK4 enzyme): 9.23

[2H]C([2H])([2H])C(O)(CCc1nnc(-c2cnc(-c3ccc4cc(C#N)cnn34)cc2NC(C)C)s1)C([2H])([2H])[2H] [Example 317, 7-(5-(5-(3-hydroxy-3-(methyl-d3)butyl-4,4,4-d3)-1,3,4-thiadiazol-2-yl)-4-(isopropylamino)pyridin-2-yl)pyrrolo[1,2-b]pyridazine-3-carbonitrile]
pEC50 (TNFα; [1]): 8.36 | pIC50 (IRAK4 enzyme): 9.22

CC(C)Nc1cc(-c2ccc3cc(C#N)cnn23)ncc1-c1nnc(CC(=O)O)s1 [Example 319, 2-(5-(6-(3-cyanopyrrolo[1,2-b]pyridazin-7-yl)-4-(isopropylamino)pyridin-3-yl)-1,3,4-thiadiazol-2-yl)acetic acid]
pEC50 (TNFα; [1]): 6.90 | pIC50 (IRAK4 enzyme): 8.77

CC(C)Nc1cc(-c2ccc3cc(C#N)cnn23)ncc1-c1nnc(CC(C)(C)O)s1 [Example 320, 7-(5-(5-(2-hydroxy-2-methylpropyl)-1,3,4-thiadiazol-2-yl)-4-(isopropylamino)pyridin-2-yl)pyrrolo[1,2-b]pyridazine-3-carbonitrile]
pEC50 (TNFα; Homo sapiens, Monocyte): 7.17 | pIC50 (IRAK4 enzyme): 8.93

N#Cc1cnn2c(-c3cc(NC4CCOCC4)c(-c4nnc(C56CCC(N)(CC5)CC6)s4)cn3)ccc2c1 [Example 336, 7-(5-(5-(4-aminobicyclo[2.2.2]octan-1-yl)-1,3,4-thiadiazol-2-yl)-4-((tetrahydro-2H-pyran-4-yl)amino)pyridin-2-yl)pyrrolo[1,2-b]pyridazine-3-carbonitrile]
pEC50 (TNFα; Homo sapiens, Monocyte): 7.96 | pIC50 (IRAK4 enzyme): 9.15

(S)-7-(5-(5-(2-(aminomethyl)pyrrolidine-1-carbonyl)-1,3,4-thiadiazol-2-yl)-4-(isopropylamino)pyridin-2-yl)pyrrolo[1,2-b]pyridazine-3-carbonitrile [Compound 242]
pEC50 (TNFα; human monocytes, second part of Table 2, compounds 33-343, unit inferred): 6.12 | pIC50 (IRAK4 enzyme; second part of Table 2, compounds 33-343, unit inferred, read-out: IC50 IRAK4-HTBS): 8.56
